Literature values, collected in patent US8029830B2, “Composition and method for promoting internal health and external appearance” (Nuvocare Health Services Inc., priority 2008, dated 2011).
Where two headings read alike, the source gives them in different places.

Columns and labels:
[1] = system: rat kidney fibroblasts; conditions: UVA light
[2] = system: healthy subjects
[3] = system: middle-aged women
[4] = system: male subjects; conditions: cycling capacity
[5] = system: vastus lateralis
[6] = 28 days of supplementation
[7] = system: women subjects
[8] = in vitro
[9] = system: thymocytes; conditions: irradiated (6 Gy)
[10] = system: macrophage cultures; conditions: impairment induced by phorbol esters
[11] = human, in vivo
[12] = system: lean volunteers and post-obese subjects
[13] = system: rats; conditions: rat, in vivo
[14] = system: older and younger women; conditions: following caffeine ingestion
[15] = system: sedentary human subjects; conditions: for body fat percentage, body fat mass and lean body mass: oral ingestion for 12 weeks
[16] = system: human plasma, blood platelets and lymphocytes
[17] = system: rat model of diabetic neuropathy; conditions: intraperitoneal treatment for 2 weeks
[18] = system: healthy volunteers; conditions: daily oral, 8 weeks
[19] = system: persons with type 2 diabetes mellitus
[20] = system: mice; conditions: topical application
[21] = system: pigs; conditions: pretreatment; hyperbaric oxygen (HBO)
[22] = system: healthy human volunteers; conditions: at the end of the treatment period

For `CC1=C(/C=C/C(C)=C/C=C/C(C)=C/C=C/C=C(C)/C=C/C=C(C)/C=C/C2=C(C)C(=O)[C@@H](O)CC2(C)C)C(C)(C)C[C@H](O)C1=O` [astaxanthin], the “indices of oxidative stress (CAT, SOD activities, TBARS)” value [1] is listed as “inhibit these indices of oxidative stress”, the “protective properties compared to beta-carotene and lutein” value [1] is listed as “superior protective properties” and the “plasma 12- and 15-hydroxy fatty acids” value ([2]; during supplementation) is listed as “reduced significantly”. The plasma astaxanthin levels ([2]; in vivo) was “significantly elevated”, the tolerability ([2]; in vivo) was “well tolerated” and the improvement in skin-surface-moisture ([3]; oral delivery, after 6 weeks) was 52%. For the same compound, the reduction in wrinkles ([3]; oral delivery, after 6 weeks) was 54% and the “fine lines and wrinkles, elasticity and moisture content” value ([3]; six weeks, instrumentation and dermatologist's review) was “significant improvements”.

In the case of `NCCC(=O)O` [beta-alanine], the “muscle carnosine level and total work done” value [4] is listed as “significant muscle carnosine level increases, as well as an increase in total work done”, the muscle carnosine levels [5] is listed as “significant increases” and the “increase in PWCFT” value [6] is listed as 14.5%. For the same compound, the “onset of neuromuscular fatigue and ventilatory threshold” value ([7]; 4 weeks, submaximal workloads) was “delayed” and the time-to-exhaustion ([7]; maximal cycle ergometry performance) was “increased”.

For `CC[C@H](CC[C@@H](C)[C@H]1CC[C@H]2[C@@H]3CC=C4C[C@@H](O)CC[C@]4(C)[C@H]3CC[C@]12C)C(C)C` [beta-sitosterol], the radical scavenging [8] is given as “modest radical scavenger”, the “activities of antioxidant enzymes (SOD, CAT, GPx)” value [9] is given as “increasing” and the “intracellular reactive oxygen species (ROS)” value [9] is given as “attenuating”. The “irradiation-induced cell death and nuclear DNA strand breaks” value [9] was “decreased” and the glutathione/oxidized glutathione ratio [10] was “reverts the impairment”.

For `Cn1c(=O)c2c(ncn2C)n(C)c1=O` [caffeine], the energy expenditure [11] is listed as “increased energy expenditure dose dependently”, the “subsequent 12-h night EE” value ([12]; in vivo) is listed as “no influence” and the “increase in daily EE” value ([12]; lean volunteers) is listed as 150 kcal. For the same compound, the “increase in daily EE” value ([12]; post-obese subjects) was 79 kcal, the “increase of energy expenditure (EE)” value ([12]; repeated administration at 2-hour intervals over a 12-hour day period, two subject groups) was 8-11% and the neurodegeneration [13] was “protective effects”. For the same compound, the energy expenditure [14] was “increased energy expenditure significantly”.

In the case of `C=C[C@@]1(C)CC(=O)[C@]2(O)[C@@]3(C)[C@@H](O)CCC(C)(C)[C@@H]3[C@H](O)[C@H](OC(C)=O)[C@@]2(C)O1` [forskholin], the “lean body mass gained, on average” value ([15]; in the course of the study) is given as 8.2 pounds, the “body fat percentage, body fat mass and lean body mass” value [15] is given as “significantly decrease body fat percentage while increasing lean body mass” and the “body fat percentage, body fat mass and lean body mass” value ([15]; listed as forkohlin) is given as “decreasing body fat percentage and body fat mass”.

In the case of `Oc1ccc(C=Cc2cc(O)cc(O)c2)cc1` [resveratrol], the “oxidative stress levels in plasma” value ([16]; after incubation with platinum compounds) is listed as “distinct reduction”, the “biomarker of lipid peroxidation” value ([16]; control blood platelets and platelets treated with platinum compounds) is listed as “decreased the production” and the “DNA damage (measured by comet assay)” value ([16]; lymphocytes, vs platinum compounds without resveratrol) is listed as “significant decrease”. The “pathologies associated with diabetic neuropathy” value [17] was “protective effects”.

For `[Zn]` [zinc], the “plasma levels of lipid peroxidation products and DNA adducts” value [18] is listed as “decreased”, the “decrease of plasma TBARS” value ([19]; after six months) is listed as 15% and the plasma zinc values ([19]; after three and six months of supplementation, all subjects) is listed as “greater than 10.7 micro mol/L”.

For epigallocatechin-3-gallate [EGCG], the “UVB-induced skin tumor development” value [20] is listed as “prevents UVB-induced skin tumor development”.

In the case of superoxide dismutase, the DNA strand-break damage [21] is given as “protected against DNA strand-break damage”.

In the case of vitamin E, the “decrease of urine lipid peroxidation products” value [22] is given as 27%.
